In article PMC2831638 (Biochemistry, 2010):
Entries after “also recorded” stand apart in the source; their conditions may differ. Ends that are not written are not given here.

Columns and labels:
[1] = Peptide solubility, filtration assay with AAA; type: physicochemical; settings: pH 7.4
[2] = test system: Aβ42-induced toxicity in differentiated PC-12 cells; settings: cell-viability screen; cited from earlier work

Substance | Max. solubility [1] | toxicity of the peptide itself (in words) [2] | also measured
AEDVGSNKGA [Aβ(21–30)] | 129 ± 5 µM | – | –
IGLMVGGVVIA [Aβ(32–42)] | – | slight toxicity | –
KGAIIGLMVGGVVIA [Aβ(28–42)] | – | highly toxic itself; also recorded: higher toxicity than Aβ42 itself | –
LMVGGVV [Aβ(34–40)] | 169 ± 13 µM | – | –
VVIA [Aβ(39–42)] | – | – | inhibition of Aβ42-induced toxicity (in words) [2]: strongest inhibitors
